For test [1] the following is noted: compared with dulcoside A; cited from earlier work.
Test [2] concerns the target T1, β-lactoglobulin (Bos taurus, UniProt P02754).
T1 sequence (P02754 17-178): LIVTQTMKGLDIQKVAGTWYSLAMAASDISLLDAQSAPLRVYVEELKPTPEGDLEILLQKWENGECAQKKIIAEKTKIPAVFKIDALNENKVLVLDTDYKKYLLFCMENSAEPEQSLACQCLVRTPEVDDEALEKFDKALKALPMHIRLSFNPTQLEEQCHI
The experiment in a line: STD NMR binding with β-lactoglobulin. To be noted: 1 mM rebaudioside A, 20 μM β-lactoglobulin, 40° C., pH 3. The source says:
(§1) A first step is to assess binding of the protein to ligand under investigation. Saturation transfer difference (STD) NMR spectroscopy was utilized to screen ligands for binding to proteins. The method is based on the transfer of saturation from the protein to the bound ligands, which exchange into solution where they are detected as a reduction in the intensity of the free ligand signal. By subtracting the spectrum in which the protein is saturated from a spectrum without protein saturation produces a spectrum showing only the difference in which only the signals of the ligand(s) remain. This method was used to identify binding epitopes, because the ligand residues in direct contact with the protein show faster build-up of STD signals. This method involves a several-fold excess of ligand concentration over protein, allowing low […] protein concentrations to be used.
FIG. 8A is the solvent suppressed (WET) ^1H NMR spectrum of a sample containing 1 mM rebaudioside A and 20 μM β-lactoglobulin at 40° C. and pH 3. FIG. 8B is the STD spectrum of the same sample. Separate FIDs were stored with on-resonance saturation at 7.19 ppm and off-resonance saturation at −15 ppm.

In test [3] the test system is panelists. As to the kind of experiment: Paired comparison taste test of organoleptic properties by 5 panelists. The class given is in vivo. To be noted: taste panel, solution in 50 mL. From the text: The following compositions were formulated and tested for their organoleptic properties through a paired comparison test by 5 panelists.
In test [4] the target is bovine serum albumin (BSA) (Bos taurus, UniProt P02769). As to the kind of experiment: Saturation transfer difference (STD) NMR binding screen with BSA.
Sequence of bovine serum albumin (BSA) (P02769 25-607): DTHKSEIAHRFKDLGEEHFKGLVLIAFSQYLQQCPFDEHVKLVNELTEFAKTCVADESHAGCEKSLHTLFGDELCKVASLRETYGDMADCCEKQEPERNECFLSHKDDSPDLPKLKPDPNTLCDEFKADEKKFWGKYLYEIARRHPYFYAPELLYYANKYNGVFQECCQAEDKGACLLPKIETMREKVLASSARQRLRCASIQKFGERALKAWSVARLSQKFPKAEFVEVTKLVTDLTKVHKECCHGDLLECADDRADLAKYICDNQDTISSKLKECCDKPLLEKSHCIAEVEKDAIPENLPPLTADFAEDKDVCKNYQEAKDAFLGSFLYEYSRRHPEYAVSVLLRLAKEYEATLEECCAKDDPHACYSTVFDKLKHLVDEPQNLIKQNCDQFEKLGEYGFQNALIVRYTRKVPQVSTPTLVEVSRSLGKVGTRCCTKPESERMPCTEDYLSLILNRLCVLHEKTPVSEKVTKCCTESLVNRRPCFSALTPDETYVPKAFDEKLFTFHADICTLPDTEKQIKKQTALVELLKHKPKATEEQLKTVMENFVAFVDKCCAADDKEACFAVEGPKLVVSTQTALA
Excerpt: as §1, with “used. […]” for “used.”
FIG. 2A is the pre-saturated 600 MHz ^1H NMR spectrum of a 2 mM rebaudioside A and 50 μM BSA in filtered orange juice with 10% D2O at 25° C. A STD spectrum (FIG. 2B) of 2 mM rebaudioside A and 50 μM BSA in filtered orange juice with on- and off-resonance saturation at 8.56 and 31 ppm, respectively was recorded to validate the stability of rebaudioside A—BSA complex in a natural and complex food matrix. […]

Regarding `C=C1C[C@@]23CC[C@H]4[C@@](C)(CCC[C@@]4(C)C(=O)O[C@@H]4O[C@H](CO)[C@@H](O)[C@H](O)[C@H]4O[C@@H]4O[C@H](CO)[C@@H](O)[C@H](O)[C@H]4O)[C@@H]2CC[C@]1(O[C@@H]1O[C@H](CO)[C@@H](O)[C@H](O[C@@H]2O[C@H](CO)[C@@H](O)[C@H](O)[C@H]2O)[C@H]1O[C@@H]1O[C@H](CO)[C@@H](O)[C@H](O)[C@H]1O)C3` [rebaudioside D], in test [1], the “bitterness relative to dulcoside A” value is “two-thirds less bitter” and the “sweetness relative to dulcoside A” value is on record as “around five times sweeter”.

On to rebaudioside A, for which the “binding to β-lactoglobulin by STD spectrum” value in test [2] is recorded as “capable of binding to β-lactoglobulin”. In test [3], the “Quality: bitter after taste” value was “sweetness and bitter after taste”; the “Quality: onset of sweetness” value is reported as “Slow onset of sweetness”. Besides, the “binding to BSA by STD spectrum” value in test [4] (1 mM rebaudioside A, 20 μM BSA, D2O, pH 3.0, 40° C., saturation at 7.19 ppm) is on record as “binds to BSA”. Besides, the “binding to BSA by STD spectrum in food matrix” value in test [4] (2 mM rebaudioside A, 50 μM BSA, filtered orange juice with 10% D2O, 25° C.) is “specific binding between Rebaudioside A and BSA occurs”.

Source of the values: patent publication US20180255816A1, “SWEETENERS HAVING ENHANCED ORGANOLEPTIC PROPERTIES” (CORNELL UNIVERSITY, priority 2015, published 2018).
